Measured values taken from patent US20060069136A1, “Use of Epothilones in the treatment of bone metastasis” (priority 2004, published 2006).
Where “and” joins values, the source holds several entries; their conditions need not be identical. Equal entries are not always repeated.

Tests used:
[1] = test system: Human breast cancer MDA MB 231; test: Bone metastasis model, Example 2: treatment on Day 5, X-ray on Day 20; assay type: in vivo, NMRI nude mice; details: 10 mg/kg i.v. on Day 5
Experimental: (§1) Human breast cancer MDA MB 231, injected to NMRI nude mice intracardially
30 NMRI nude mice received 500,000 of MDA-MB 231 breast cancer tumor cells intracardially (Day 0). The tumor cells metastasized to the bones and the growth of the tumor in the bones lead to bone destruction. In addition, the development of tumors near the tumor cell injection site is observed. After 5 days (Day 5), 15 of the 30 animals were treated with the Test Compound (10 mg/kg, i.v.). On Day 20 the experiment was terminated and the size and number of bone metastases were measured in each animal using the X-ray technology described in example 1. In addition, the numer of animals which developed tumors at the tumor cell injection site was determined.

[2] = test system: Human breast cancer MDA MB 231; test: Bone metastasis model, Example 1: treatment on Day 10, X-ray on Day 22, survival; assay type: in vivo, NMRI nude mice
Experimental: as §1
Four days before tumor cells implantation, the baseline bone structure of the mice was determined by X-ray. 30 NMRI nude mice received 500,000 of MDA-MB 231 breast cancer tumor cells intracardially (Day 0). The tumor cells metastasized to the bones and the growth of the tumor in the bones lead to bone destruction. After the period of 10 days (Day 10), 10 of the […] animals were treated with the Test Compound (10 mg/kg, i.v.). The size and number of bone metastases were monitored 4 days before tumor cell implantation (baseline) and on Day 22 in each animal using the X-ray technology described below.
The mice underwent an anaesthesia with a mixture of Rompun (Rompun 2% Bayer) diluted with sodium chloride solution(Braun) by 1:10 and Ketavet ( Pharmacia GmbH 100 mg/ml), diluted by 1:5 with isotonic sodium chloride solution. For application of the narcotics, 1 ml sterile syringes (Codan Medical) and cannula (Braun Sterican, size 18) were used.
Once the tolerance stage was reached, the mice were attached to a 1 mm strong acrylic glass and additionally taped with a self-adhesive tape (sticky side facing the animal). The acrylic glass served as surface on which the animals underwent the X-ray.
At the console of the Mammomat (run by the software “Detector” (Ifg) on Windows NT platform), the standard setting of 35 kV and 400 mAs was adjusted. The setting was chosen in such a way to allow a good contrasting of the entire skeletal system and visibility of finest changes/aberrations of the bone structure and morphology. The resolution of the systems lies at 0,27 μm.
After initializing the Software the module “Zoomed Modus” was chosen for the detector and the ROIs 2-3 were selected in accordance with the previously selected positioning of the mouse. The regulator Image High was adjusted to 2000.
The actual measurements were started as soon as the Offset measurings and the reference measurings had been performed. The flexible table was brought into position (80 mm) and was advanced at a speed of 25,9 mm/sec. The final position of the table was chosen in such a way that the entire body of the mouse could be X-rayed all at once during the examination. The reference measuring was subtracted from each gained Image and was stored as a DICOM-file or as a BMP-file.
Analysis of the treatment was performed on Day 22 by evaluating twice the constructed exposures of the mice and searching for destructive processes of the skeletal system (focussing mainly on the long bones, spine and pelvis). The extend/area of the destructive processes/bone metastasis were determined with a special DICOM-Software (based on Microsoft Excel).

[3] = mean per animal, measured on Day 20 by X-ray, 10 mg/kg
[4] = 10 mg/kg i.v. on Day 10, result in words

C=CCC1C(=O)C(C)(C)C(O)CC(=O)OC(c2ccc3sc(C)nc3c2)CC2OC2(C)CCCC(C)C1O (stereo not shown) [Test Compound, 7,11-dihydroxy-3-(2-methyl-benzothiazol-5-yl)-10-(prop-2-en-1-yl)-8,8,12,16-tetramethyl-4,17-dioxabicyclo[14.1.0]heptadecane-5,9-dione]
Number of bone-metastases [1, 3]: 0.7 and 0.7 ± 0.9 | Size of bone-metastases [1, 3]: 0.1 mm^2 and 0.1 ± 0.2 mm^2 | Number of animals which developed tumors at the tumor cell injection site ([1]; of 15 animals, Day 20): 0 | Effect on bone metastasis (FIG. 1) [2, 4]: inhibited bone metastasis | Effect on life time (FIG. 1) [2, 4]: prolongation of life time was observed | Mean Survival Time ([2]; 10 mg/kg i.v., single application on Day 10, MDA-MB 231 cells intracardially): 31.6 days | Mean Bone Tumor Area ([2]; 10 mg/kg i.v., single treatment on Day 10, X-ray analysis on Day 22, MDA-MB 231 cells intracardially): 5.9 mm^2
